# Calls of active or inactive are those of the source. The rule behind the calls is not given here.
# Experiments:
# HeLa [1] = experiment: Induction of apoptosis in human HeLa cells assessed as early apoptotic cells at 100 nM after 48 hrs by Annexin V-FITC/propidium iodide staining based flow cytometry (reference value: 0.7%); type: functional
# HeLa [2] = experiment: Induction of apoptosis in human HeLa cells assessed as live cells at 100 nM after 48 hrs by Annexin V-FITC/propidium iodide staining based flow cytometry (reference value: 96.5%); type: functional
# HeLa [3] = experiment: Inhibition of alpha-tubulin polymerization in human HeLa cells assessed as increase in ratio of supernatant faction to pellet fraction at 500 nM after 6 hrs by Western blot analysis; type: cell-based
# HeLa [4] = experiment: Induction of apoptosis in human HeLa cells assessed as late apoptotic cells at 100 nM after 48 hrs by Annexin V-FITC/propidium iodide staining based flow cytometry (reference value: 2%); type: functional
# HeLa [5] = experiment: Induction of apoptosis in human HeLa cells assessed as necrotic cells at 100 nM after 48 hrs by Annexin V-FITC/propidium iodide staining based flow cytometry (reference value: 0.9%); type: functional
# Homo sapiens [6] = species: Homo sapiens; experiment: Disruption of microtubule structure in human SKOV3 cells assessed as decrease in density at 50 nM after 24 hrs by DAPI staining based immunofluorescence assay; type: cell-based
# HeLa [7] = experiment: Cell cycle arrest in human HeLa cells assessed as accumulation at G2/M-phase at 50 nM after 24 hrs by propidium iodide staining based flow cytometry; type: functional
# A2780 [8] = experiment: Antitumor activity against human A2780 cells xenografted in Balb/c nude mouse assessed as isolated tumor weight inhibition at 7.5 mg/kg, ip once in every 2 days measured after 14 days; type: functional, organism-based
# [9] = Acute toxicity in ICR mouse assessed as survival rate at 95 mg/kg, ip measured on day 14 (reference value: 100%); type: organism-based; conditions: in vivo
# Mus musculus [10] = experiment: Acute toxicity in ICR mouse assessed as death at 25 to 50 mg/kg, ip measured after 5 to 14 days; type: organism-based; conditions: in vivo
# HeLa [11] = experiment: Induction of apoptosis in human HeLa cells assessed as early apoptotic cells at 50 nM after 48 hrs by Annexin V-FITC/propidium iodide staining based flow cytometry (reference value: 0.7%); type: functional
# [12] = Acute toxicity in ICR mouse assessed as survival rate at 50 mg/kg, ip measured on day 14 (reference value: 100%); type: organism-based; conditions: in vivo
# HeLa [13] = experiment: Upregulation of cleaved PARP1 protein expression in human HeLa cells after 48 hrs by Western blot analysis; type: functional, cell-based
# Mus musculus [14] = experiment: Acute toxicity in ICR mouse assessed as death at 25 to 95 mg/kg, ip measured after 2 days; type: organism-based; conditions: in vivo, 48 h
# Mus musculus [15] = experiment: Toxicity in Balb/c nude mouse xenografted with human A2780 cells assessed as body weight loss at 7.5 mg/kg, ip once in every 2 days measured up to 14 days; type: organism-based; conditions: in vivo
# HeLa [16] = experiment: Induction of apoptosis in human HeLa cells assessed as early apoptotic cells at 200 nM after 48 hrs by Annexin V-FITC/propidium iodide staining based flow cytometry (reference value: 0.7%); type: functional
# A2780 [17] = experiment: Antitumor activity against human A2780 cells xenografted in Balb/c nude mouse assessed as tumor volume inhibition at 7.5 mg/kg, ip once in every 2 days measured up to 14 days relative to control; type: functional
# HeLa [18] = experiment: Induction of apoptosis in human HeLa cells assessed as necrotic cells at 50 nM after 48 hrs by Annexin V-FITC/propidium iodide staining based flow cytometry (reference value: 0.9%); type: functional
# HeLa [19] = experiment: Induction of histone-H3 phosphorylation in human HeLa cells by Western blot analysis; type: cell-based
# [20] = Acute toxicity in ICR mouse assessed as survival rate at 25 mg/kg, ip measured on day 14 (reference value: 100%); type: organism-based; conditions: in vivo
# HeLa [21] = experiment: Induction of apoptosis in human HeLa cells assessed as late apoptotic cells at 50 nM after 48 hrs by Annexin V-FITC/propidium iodide staining based flow cytometry (reference value: 2%); type: functional
# [22] = target: Mitotic checkpoint serine/threonine-protein kinase BUB1 beta (Homo sapiens) (UniProt O60566); experiment: Induction of BubR1 hyperphosphorylation in human HeLa cells by Western blot analysis; type: cell-based
# Mitotic checkpoint serine/threonine-protein kinase BUB1 beta (Homo sapiens), sequence (O60566 whole entry): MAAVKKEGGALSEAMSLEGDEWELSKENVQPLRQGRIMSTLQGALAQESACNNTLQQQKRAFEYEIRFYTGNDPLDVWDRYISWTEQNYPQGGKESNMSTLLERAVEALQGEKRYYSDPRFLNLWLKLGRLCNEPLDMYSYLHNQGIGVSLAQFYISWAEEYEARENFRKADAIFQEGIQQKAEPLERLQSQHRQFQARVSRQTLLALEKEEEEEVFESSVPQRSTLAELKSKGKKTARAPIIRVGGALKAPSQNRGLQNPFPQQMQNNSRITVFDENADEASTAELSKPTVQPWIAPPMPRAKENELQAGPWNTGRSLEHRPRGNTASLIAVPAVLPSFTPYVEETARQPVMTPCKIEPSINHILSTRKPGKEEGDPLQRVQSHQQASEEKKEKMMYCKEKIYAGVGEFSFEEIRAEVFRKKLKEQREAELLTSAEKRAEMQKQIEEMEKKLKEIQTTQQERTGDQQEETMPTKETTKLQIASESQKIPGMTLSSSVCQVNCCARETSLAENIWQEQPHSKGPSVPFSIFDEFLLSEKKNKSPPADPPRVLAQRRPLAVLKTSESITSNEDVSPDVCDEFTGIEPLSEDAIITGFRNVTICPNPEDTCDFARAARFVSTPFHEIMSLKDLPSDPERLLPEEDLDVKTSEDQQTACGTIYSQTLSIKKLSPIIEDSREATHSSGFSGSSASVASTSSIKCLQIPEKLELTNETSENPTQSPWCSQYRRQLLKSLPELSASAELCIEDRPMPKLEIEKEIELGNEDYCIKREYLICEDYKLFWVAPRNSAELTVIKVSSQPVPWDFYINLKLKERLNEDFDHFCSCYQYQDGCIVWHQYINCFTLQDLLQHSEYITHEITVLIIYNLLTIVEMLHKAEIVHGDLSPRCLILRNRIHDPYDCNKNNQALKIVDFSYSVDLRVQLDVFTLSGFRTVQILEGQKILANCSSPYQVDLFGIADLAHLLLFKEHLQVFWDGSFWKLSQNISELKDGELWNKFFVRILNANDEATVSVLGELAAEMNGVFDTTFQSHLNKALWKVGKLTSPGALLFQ
# HUVEC = experiment: Antiangiogenic activity against HUVEC assessed as disruption of capillary-like tube formation at 25 to 50 nM after 12 hrs by inverted microscopic method; type: functional, cell-based; conditions: Homo sapiens
# Mus musculus [23] = experiment: Acute toxicity in ICR mouse assessed as death at 25 to 50 mg/kg, ip measured after 4 days; type: organism-based; conditions: in vivo, 96 h
# Sus scrofa = species: Sus scrofa; experiment: Inhibition of pig brain tubulin polymerization measured every 1 min for 20 mins by spectrophotometric method
# Mus musculus [24] = experiment: Acute toxicity in ICR mouse assessed as death at 25 mg/kg, ip measured after 3 days; type: organism-based; conditions: in vivo, 72 h
# HeLa [25] = experiment: Induction of apoptosis in human HeLa cells assessed as late apoptotic cells at 200 nM after 48 hrs by Annexin V-FITC/propidium iodide staining based flow cytometry (reference value: 2%); type: functional
# Mus musculus [26] = experiment: Anti-vascular activity in Balb/c nude mouse assessed as inhibition of VEGF-induced capillary blood vessel formation using sc injected matrigel plug supplemented with 100 nM test compound mixed with VEGF and measured after 1 week by matrigel plug assay; type: functional, organism-based
# HeLa [27] = experiment: Cell cycle arrest in human HeLa cells assessed as accumulation at G2/M-phase at 50 to 100 nM after 24 hrs by propidium iodide staining based flow cytometry; type: functional
# [28] = Acute toxicity in ICR mouse assessed as survival rate at 70 mg/kg, ip measured on day 14 (reference value: 100%); type: organism-based; conditions: in vivo
# Mus musculus [29] = experiment: Acute toxicity in ICR mouse assessed as death at 25 to 95 mg/kg, ip measured after 1 day; type: organism-based; conditions: in vivo, 24 h
# [30] = Acute toxicity in ICR mouse assessed as survival rate at 35 mg/kg, ip measured on day 14 (reference value: 100%); type: organism-based; conditions: in vivo
# Homo sapiens [31] = species: Homo sapiens; experiment: Disruption of microtubule structure in human SKOV3 cells assessed as decrease in density at 100 nM after 24 hrs by DAPI staining based immunofluorescence assay; type: cell-based
# HeLa [32] = experiment: Induction of apoptosis in human HeLa cells assessed as necrotic cells at 200 nM after 48 hrs by Annexin V-FITC/propidium iodide staining based flow cytometry (reference value: 0.9%); type: functional
# Mus musculus [33] = experiment: Toxicity in Balb/c nude mouse xenografted with human A2780 cells assessed as abnormality in kidney at 7.5 mg/kg, ip once in every 2 days measured after 14 days by H and E staining based assay; type: organism-based; conditions: in vivo, 336 h
# MDA-MB-231 = experiment: Anticlonogenic activity against human MDA-MB-231 cells incubated for 48 hrs followed by replacement with fresh medium measured after 7 to 10 days by gentian violet staining based assay; type: functional, cell-based
# HeLa [34] = experiment: Induction of apoptosis in human HeLa cells assessed as live cells at 200 nM after 48 hrs by Annexin V-FITC/propidium iodide staining based flow cytometry (reference value: 96.5%); type: functional
# A2780 [35] = experiment: Antitumor activity against human A2780 cells xenografted in Balb/c nude mouse assessed as induction of tumor necrosis at 7.5 mg/kg, ip once in every 2 days measured after 14 days by H and E staining based assay; type: functional, organism-based
# A2780 [36] = experiment: Antitumor activity against human A2780 cells xenografted in Balb/c nude mouse assessed as tumor weight inhibition at 7.5 mg/kg, ip once in every 2 days measured up to 14 days; type: functional, organism-based
# HeLa [37] = experiment: Upregulation of p53 protein expression in human HeLa cells after 48 hrs by Western blot analysis; type: functional, cell-based
# [38] = Growth inhibition of HOSEC at 1 uM after 48 hrs by MTT assay relative to control; conditions: human, HOSEC cells; read-out: GI
# Mus musculus [39] = experiment: Toxicity in Balb/c nude mouse xenografted with human A2780 cells assessed as abnormality in liver at 7.5 mg/kg, ip once in every 2 days measured after 14 days by H and E staining based assay; type: organism-based; conditions: in vivo, 336 h
# HeLa [40] = experiment: Upregulation of Bax protein expression in human HeLa cells after 48 hrs by Western blot analysis; type: functional, cell-based
# Mus musculus [41] = experiment: Toxicity in Balb/c nude mouse xenografted with human A2780 cells assessed as abnormality in spleen at 7.5 mg/kg, ip once in every 2 days measured after 14 days by H and E staining based assay; type: organism-based; conditions: in vivo, 336 h
# HeLa [42] = experiment: Induction of apoptosis in human HeLa cells assessed as live cells at 50 nM after 48 hrs by Annexin V-FITC/propidium iodide staining based flow cytometry (reference value: 96.5%); type: functional
# HeLa [43] = experiment: Induction of apoptosis in human HeLa cells after 48 hrs by Annexin V-FITC/propidium iodide staining based flow cytometry; type: functional, cell-based
# Mus musculus [44] = experiment: Anti-vascular activity in Balb/c nude mouse assessed as inhibition of VEGF-induced capillary blood vessel formation by measuring reduction in hemoglobin level using sc injected matrigel plug supplemented with 100 nM test compound mixed with VEGF and measured after 1 week by matrigel plug assay; type: functional, organism-based
# HeLa [45] = experiment: Upregulation of Cyclin-B1 protein expression in human HeLa cells at 50 to 200 nM by Western blot analysis; type: functional, cell-based
smiles,measurement,setting,value
COc1ccc(/C=C\c2cc(OC)c(OC)c(OC)c2)cc1O [COMBRETASTATIN A4],Activity,HeLa [1],33.3%
same,Activity,HeLa [2],30%
same,tubulin polymerization inhibition (active/inactive),HeLa [3],Active
same,Activity,HeLa [4],29.2%
same,Activity,HeLa [5],7.5%
same,Activity,Homo sapiens [6],Active
same,Activity,HeLa [7],100%
COc1ccc([C@H]2[C@H](CO)C(=O)N2c2cc(OC)c(OC)c(OC)c2)cc1O,inhibition,A2780 [8],Active
same,survival at 14 day,[9],20%
same,Activity,Mus musculus [10],Non-Toxic
same,Activity,HeLa [11],18.6%
same,survival at 14 day,[12],90%
same,Activity,HeLa [13],Dose-dependent effect
same,Activity,Mus musculus [14],Non-Toxic
same,Activity,Mus musculus [15],Non-Toxic
same,Activity,HeLa [16],36.1%
same,inhibition in vivo at 7.5 mg/kg,A2780 [17],78.9%
same,Activity,HeLa [18],13%
same,Activity,HeLa [19],Dose-dependent effect
same,survival at 14 day,[20],100%
same,Activity,HeLa [21],20.1%
same,Activity,[22],Dose-dependent effect
same,Activity,HeLa [1],32.9%
same,Activity,HUVEC,Active
same,Activity,Mus musculus [23],Non-Toxic
same,inhibition,Sus scrofa,Dose-dependent effect
same,Activity,HeLa [2],36.3%
same,Activity,Mus musculus [24],Non-Toxic
same,Activity,HeLa [25],34.6%
same,inhibition,Mus musculus [26],Active
same,Activity,HeLa [27],Active
same,survival at 14 day,[28],30%
same,Activity,Mus musculus [29],Non-Toxic
same,survival at 14 day,[30],90%
same,Activity,Homo sapiens [31],Active
same,Activity,HeLa [32],6.7%
same,Activity,Mus musculus [33],Non-Toxic
same,Activity,MDA-MB-231,Dose-dependent effect
same,Activity,HeLa [34],22.6%
same,Activity,A2780 [35],Active
same,inhibition,A2780 [36],Active
same,Activity,HeLa [37],Dose-dependent effect
same,tubulin polymerization inhibition (active/inactive),HeLa [3],Active
same,Activity,HeLa [4],24.6%
same,"inhibition at 48 h, 1 µM",[38],< 50%
same,Activity,Mus musculus [39],Non-Toxic
same,Activity,HeLa [40],Dose-dependent effect
same,Activity,HeLa [5],6.1%
same,Activity,Mus musculus [41],Non-Toxic
same,Activity,HeLa [42],48.2%
same,Activity,HeLa [43],Dose-dependent effect
same,inhibition,Mus musculus [44],Active
same,Activity,HeLa [45],Active
